Test results taken from US9113629B2, “4-amino-6-(4-substituted-phenyl)-picolinates and 6-amino-2-(4-substituted-phenyl)-pyrimidine-4-carboxylates and their use as herbicides” (DOW AGROSCIENCES LLC, priority 2013, dated 2015).
Where two headings read alike, the source gives them in different places.

Experiments:
[1] = system: Key Broadleaf Weed and Crop Species; assay: Post-emergent Test II herbicidal activity (Table 5); type: in vivo; conditions: post-emergence, 336 h, 14 days after application; for pest or weed control at 70 g/ha: application rate 70 g ai/ha; for pest or weed control at 140 g/ha: application rate 140 g ai/ha
Method in brief: (§1)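 Visual injury ratings (0 = no injury, 100 = complete kill) were taken 14 d after treatment, relative to untreated plants. Seedlings at the first–second true leaf stage received overhead spray at 187 L/ha; the highest rate was serially diluted to ½×, ¼×, ⅛× and 1/16×.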

[2] = system: Key Grass and Sedge Weeds as well as Grass Crops; assay: Post-emergent Test II herbicidal activity (Table 6); type: in vivo; conditions: post-emergence, 336 h; for pest or weed control at 70 g/ha: 70 g ai/ha; for pest or weed control at 140 g/ha: 140 g ai/ha
Method in brief: as §1

[3] = ABUTH: velvetleaf (Abutilon theophrasti), read-out: Visual Growth Reduction (%) 14 Days After Application, ABUTH
[4] = AMARE: redroot pigweed (Amaranthus retroflexus), read-out: Visual Growth Reduction (%) 14 Days After Application, AMARE
[5] = BRSNN: oilseed-rape, canola (Brassica napus), read-out: Visual Growth Reduction (%) 14 Days After Application, BRSNN
[6] = CHEAL: lambsquarters (Chenopodium album), read-out: Visual Growth Reduction (%) 14 Days After Application, CHEAL
[7] = EPHHL: wild poinsettia (Euphorbia heterophylla), read-out: Visual Growth Reduction (%) 14 Days After Application, EPHHL
[8] = HELAN: sunflower (Helianthus annuus), read-out: Visual Growth Reduction (%) 14 Days After Application, HELAN
[9] = VIOTR: wild pansy (Viola tricolor), read-out: Visual Growth Reduction (%) 14 Days After Application, VIOTR
[10] = CYPES: yellow nutsedge (Cyperus esculentus), read-out: Visual Growth Reduction (%) 14 Days After Application, CYPES
[11] = DIGSA: crabgrass (Digitaria sanguinalis), read-out: Visual Growth Reduction (%) 14 Days After Application, DIGSA
[12] = ECHCG: barnyardgrass (Echinochloa crus-galli), read-out: Visual Growth Reduction (%) 14 Days After Application, ECHCG
[13] = ORYSA: rice (Oryza sativa), crop, read-out: Visual Growth Reduction (%) 14 Days After Application, ORYSA
[14] = SETFA: giant foxtail (Setaria faberi), read-out: Visual Growth Reduction (%) 14 Days After Application, SETFA
[15] = SORVU: grain sorghum (Sorghum vulgare), read-out: Visual Growth Reduction (%) 14 Days After Application, SORVU
[16] = TRZSS (wheat, Triticum aestivum), crop, read-out: Visual Growth Reduction (%) 14 Days After Application, TRZSS
[17] = ZEAMX: maize, corn (Zea mays), crop, read-out: Visual Growth Reduction (%) 14 Days After Application, ZEAMX

Structure (SMILES)	pest or weed control at 70 g/ha [1, 3] [%]	pest or weed control at 140 g/ha [1, 3] [%]	pest or weed control at 70 g/ha [1, 4] [%]	pest or weed control at 140 g/ha [1, 4] [%]	pest or weed control at 70 g/ha [1, 5] [%]	pest or weed control at 140 g/ha [1, 5] [%]	pest or weed control at 70 g/ha [1, 6] [%]	pest or weed control at 140 g/ha [1, 6] [%]	pest or weed control at 70 g/ha [1, 7] [%]	pest or weed control at 140 g/ha [1, 7] [%]	pest or weed control at 70 g/ha [1, 8] [%]	pest or weed control at 140 g/ha [1, 8] [%]	pest or weed control at 70 g/ha [1, 9] [%]	pest or weed control at 140 g/ha [1, 9] [%]	pest or weed control at 70 g/ha [2, 10] [%]	pest or weed control at 140 g/ha [2, 10] [%]	pest or weed control at 70 g/ha [2, 11] [%]	pest or weed control at 140 g/ha [2, 11] [%]	pest or weed control at 70 g/ha [2, 12] [%]	pest or weed control at 140 g/ha [2, 12] [%]	further results
Nc1c(F)c(-c2ccc(C(F)(F)F)c(F)c2)nc(C(=O)O)c1Cl [Compound 134]	85 to 94	85 to 94	85 to 94	95 to 100	95 to 100	95 to 100	95 to 100	95 to 100	95 to 100	95 to 100	95 to 100	95 to 100	95 to 100	95 to 100	95 to 100	95 to 100	75 to 84	85 to 94	95 to 100	95 to 100	pest or weed control at 70 g/ha [2, 13]: 45 to 59%; pest or weed control at 140 g/ha [2, 13]: 45 to 59%; pest or weed control at 70 g/ha [2, 14]: 95 to 100%; pest or weed control at 140 g/ha [2, 14]: 95 to 100%; pest or weed control at 70 g/ha [2, 15]: 85 to 94%; pest or weed control at 140 g/ha [2, 15]: 85 to 94%; pest or weed control at 70 g/ha [2, 16]: 60 to 74%; pest or weed control at 140 g/ha [2, 16]: 75 to 84%; pest or weed control at 70 g/ha [2, 17]: 45 to 59%; pest or weed control at 140 g/ha [2, 17]: 60 to 74%; melting point: 124 to 126 °C
C#Cc1ccc(-c2nc(N)c(OC)c(C(=O)OC)n2)c(F)c1 [Compound 59]	0 to 29	0 to 29	0 to 29	0 to 29	30 to 44	45 to 59	0 to 29	60 to 74	0 to 29	0 to 29	60 to 74	60 to 74	0 to 29	0 to 29	0 to 29	0 to 29	0 to 29	0 to 29	0 to 29	0 to 29	pest or weed control at 70 g/ha [2, 13]: 0 to 29%; pest or weed control at 140 g/ha [2, 13]: 0 to 29%; pest or weed control at 70 g/ha [2, 14]: 0 to 29%; pest or weed control at 140 g/ha [2, 14]: 0 to 29%; pest or weed control at 70 g/ha [2, 15]: 0 to 29%; pest or weed control at 140 g/ha [2, 15]: 0 to 29%; pest or weed control at 70 g/ha [2, 16]: 0 to 29%; pest or weed control at 140 g/ha [2, 16]: 0 to 29%; pest or weed control at 70 g/ha [2, 17]: 0 to 29%; pest or weed control at 140 g/ha [2, 17]: 0 to 29%; melting point: 203 to 205 °C
Nc1c(F)c(-c2ccc(Cl)c(F)c2)nc(C(=O)O)c1Cl [Compound 217]	95 to 100	95 to 100	95 to 100	95 to 100	85 to 94	95 to 100	95 to 100	95 to 100	95 to 100	95 to 100	95 to 100	95 to 100	95 to 100	95 to 100	85 to 94	85 to 94	85 to 94	85 to 94	95 to 100	95 to 100	pest or weed control at 70 g/ha [2, 13]: 60 to 74%; pest or weed control at 140 g/ha [2, 13]: 75 to 84%; pest or weed control at 70 g/ha [2, 14]: 95 to 100%; pest or weed control at 140 g/ha [2, 14]: 95 to 100%; pest or weed control at 70 g/ha [2, 15]: 85 to 94%; pest or weed control at 140 g/ha [2, 15]: 85 to 94%; pest or weed control at 70 g/ha [2, 16]: 75 to 84%; pest or weed control at 140 g/ha [2, 16]: 75 to 84%; pest or weed control at 70 g/ha [2, 17]: 85 to 94%; pest or weed control at 140 g/ha [2, 17]: 95 to 100%; melting point: 159 to 161 °C
